Results taken from patent publication US10047074B2, “Pharmaceutical compound” (IOmet Pharma Ltd., priority 2014, dated 2018).

Columns and labels:
[1] = target: T1, TDO (A172) (Homo sapiens, UniProt P48775); assay: A172 Kynurenine cell based assay; settings: A172 human glioblastoma cells expressing TDO; kynurenine production, 48 hours
T1 construct: This assay utilised cancer cells which expressed either TDO (A172) or IDO (SKOV3); endogenous in cells; host or cells: A172 (human glioblastoma)
Experimental: (§1) Exemplary compounds of the invention were prepared, and tested to determine their effect as TDO and/or IDO inhibitors. Two different assays were employed: 1. a cell-based assay for detecting the effect of test compounds on kynurenine production in two different cancer cell types. This assay utilised cancer cells which expressed either TDO (A172) or IDO (SKOV3) and as such was used as a means of testing compound activity at these two enzymes in a cell-based context. 2. a TDO and IDO biochemical coupled assay which utilised recombinantly produced and purified TDO and IDO enzymes in combination with the enzyme formamidase. This coupled enzyme system allowed conversion of N-formylkynurenine produced by TDO or IDO activity to kynurenine which was then quantified by fluorescence following addition of Erhlich's Reagent The protocols for these are set out below.
(§2) Cell Based Assay for Detection of Kynurenine Produced by TDO and/or IDO
(§3) A172 (human glioblastoma) and SKOV3 (human ovarian adenocarcinoma) cells were seeded in a 96 well plate at 30,000 or 40,000 cells per well respectively in phenol red-free RPMI supplemented with 10% FCS, 2 mM L-glutamine and 500 µM L-tryptophan. IDO expression was induced in the SKOV3 cells by the addition of 500 ng/ml IFN-γ. Cells were incubated at 37° C. with or without the addition of test compound. After 48 hours, the cells were removed by centrifugation and Erhlich's reagent was added to the supernatant. The Erhlich's reagent was incubated for 5 minutes before the absorbance was read at 490 nm.

[2] = target: T2, IDO (SKOV3) (Homo sapiens, UniProt P14902); assay: SKOV3 Kynurenine cell based assay; settings: SKOV3 human ovarian adenocarcinoma cells, IDO induced by IFN-γ; kynurenine production, 48 hours
T2 construct: IDO expression was induced in the SKOV3 cells by the addition of 500 ng/ml IFN-γ; endogenous in cells; host or cells: SKOV3 (human ovarian adenocarcinoma), IFN-γ induced
T2 sequence (P14902 whole entry): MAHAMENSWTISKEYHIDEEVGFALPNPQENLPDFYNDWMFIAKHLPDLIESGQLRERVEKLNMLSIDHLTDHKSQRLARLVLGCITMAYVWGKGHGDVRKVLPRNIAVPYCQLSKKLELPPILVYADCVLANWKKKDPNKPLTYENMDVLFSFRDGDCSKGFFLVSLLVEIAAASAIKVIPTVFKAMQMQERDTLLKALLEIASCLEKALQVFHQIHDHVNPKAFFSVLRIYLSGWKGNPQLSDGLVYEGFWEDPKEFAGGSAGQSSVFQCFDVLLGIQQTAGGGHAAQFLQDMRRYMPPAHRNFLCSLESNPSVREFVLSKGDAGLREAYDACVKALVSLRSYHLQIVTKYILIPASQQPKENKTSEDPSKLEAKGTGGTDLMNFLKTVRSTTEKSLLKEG
Experimental: as §1, §2
as §3, with “supernatant.” for “supernatant. The Erhlich's reagent was incubated for 5 minutes before the absorbance was read at 490 nm.”

[3] = target: Recombinant human IDO (Homo sapiens, UniProt P14902); assay: hIDO biochemical assay (coupled with formamidase); settings: coupled with kynurenine formamidase, fluorescence
Recombinant human IDO, sequence (P14902 whole entry): as above
Experimental: as §1
(§4) TDO and IDO Biochemical Coupled Assay
(§5) Recombinant human IDO or TDO was incubated in 50 mM KPO4 (pH 7.0), 0.5 mM EGTA, 0.5 mM EDTA, 0.05% Triton™ X100, 20 mM ascorbate, […] methylene blue, 500 U/ml catalase, 50 μg/ml KynB (kynurenine formamidase). TDO assays were carried out in the presence of 330 μM L-tryptophan, while IDO assays had the addition of 45 µM L-tryptophan. After incubation for 17 minutes at room temperature the reactions were stopped by the addition of Erhlich's reagent and incubated at room temperature for 5 minutes before the fluorescence was read (Ex475, Em530).

[4] = target: Recombinant human TDO (Homo sapiens, UniProt P48775); assay: hTDO biochemical assay (coupled with formamidase); settings: 330 μM L-tryptophan, coupled with kynurenine formamidase, fluorescence
Recombinant human TDO, sequence (P48775 whole entry): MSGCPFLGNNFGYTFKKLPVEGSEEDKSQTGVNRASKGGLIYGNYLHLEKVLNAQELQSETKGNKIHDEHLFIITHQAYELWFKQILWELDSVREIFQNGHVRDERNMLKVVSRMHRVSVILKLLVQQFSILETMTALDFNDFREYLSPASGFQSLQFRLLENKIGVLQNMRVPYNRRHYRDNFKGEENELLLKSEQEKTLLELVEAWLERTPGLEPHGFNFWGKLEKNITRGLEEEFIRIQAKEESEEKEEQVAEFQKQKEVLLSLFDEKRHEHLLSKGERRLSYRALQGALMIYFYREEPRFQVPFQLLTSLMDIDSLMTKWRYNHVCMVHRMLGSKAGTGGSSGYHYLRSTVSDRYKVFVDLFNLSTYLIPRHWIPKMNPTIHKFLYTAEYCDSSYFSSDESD
Experimental: as §1, §4, §5

T1 sequence (P48775 whole entry): as above

SMILES	A172 Kynurenine cell based assay pIC50 [1]	SKOV3 Kynurenine cell based assay pIC50 [2]	hIDO biochemical assay pIC50 [3]	hTDO biochemical assay pIC50 [4]
N#Cc1ccc(-c2cnoc2N)cc1 [Compound 50]	++ (++ = pIC50 4.50-5.49)	++ (++ = pIC50 4.50-5.49)	++ (++ = pIC50 4.50-5.49)	–
O=C(Nc1oncc1-c1ccccc1)c1ccccc1 [Compound 49]	+++ (+++ = pIC50 ≥ 5.50)	++ (++ = pIC50 4.50-5.49)	+/− (+/− = pIC50 < 4.00)	+ (+ = pIC50 4.00-4.49)
c1ccc(-n2nnnc2NCC2CCCCC2)cc1 [Compound 52]	+ (+ = pIC50 4.00-4.49)	+++ (+++ = pIC50 ≥ 5.50)	–	–
Nc1oncc1-c1ccc(F)c(F)c1 [Compound 12]	+++ (+++ = pIC50 ≥ 5.50)	++ (++ = pIC50 4.50-5.49)	–	–
CC(C)CS(=O)(=O)Nc1cnoc1-c1ccccc1 [Compound 80]	+/− (+/− = pIC50 < 4.00)	+ (+ = pIC50 4.00-4.49)	++ (++ = pIC50 4.50-5.49)	+/− (+/− = pIC50 < 4.00)
O=C(Nc1oncc1-c1ccccc1)c1ccccc1 [Compound 18]	++ (++ = pIC50 4.50-5.49)	++ (++ = pIC50 4.50-5.49)	–	–
CNC(=O)CCC(=O)Nc1oncc1-c1ccccc1 [Compound 65]	+++ (+++ = pIC50 ≥ 5.50)	++ (++ = pIC50 4.50-5.49)	–	–
CN(CCC(=O)Nc1oncc1-c1ccccc1)S(C)(=O)=O [Compound 47]	++ (++ = pIC50 4.50-5.49)	+ (+ = pIC50 4.00-4.49)	–	–
O=C(Nc1oncc1-c1ccccc1)c1cccnc1 [Compound 62]	++ (++ = pIC50 4.50-5.49)	++ (++ = pIC50 4.50-5.49)	–	–
O=S(=O)(CC1CCOCC1)Nc1oncc1-c1ccccc1 [Compound 32]	+/− (+/− = pIC50 < 4.00)	+ (+ = pIC50 4.00-4.49)	–	–
O=S(=O)(Cc1ccccc1)Nc1oncc1-c1ccccc1 [Compound 29]	+ (+ = pIC50 4.00-4.49)	++ (++ = pIC50 4.50-5.49)	–	–
COc1ccc(-c2cnoc2N)cc1 [Compound 4]	++ (++ = pIC50 4.50-5.49)	++ (++ = pIC50 4.50-5.49)	–	–
O=S(=O)(Nc1oncc1-c1ccccc1)c1ccccc1 [Compound 26]	+ (+ = pIC50 4.00-4.49)	++ (++ = pIC50 4.50-5.49)	+++ (+++ = pIC50 ≥ 5.50)	+/− (+/− = pIC50 < 4.00)
Nc1oncc1-c1ccc(F)cc1 [Compound 1]	+++ (+++ = pIC50 ≥ 5.50)	++ (++ = pIC50 4.50-5.49)	++ (++ = pIC50 4.50-5.49)	++ (++ = pIC50 4.50-5.49)
O=C(Nc1oncc1-c1ccccc1)C1CCCN1 (centres unmarked) [Compound 66]	++ (++ = pIC50 4.50-5.49)	+/− (+/− = pIC50 < 4.00)	–	–
O=C(Nc1nnnn1-c1ccccc1)c1ccccc1 [Compound 70]	++ (++ = pIC50 4.50-5.49)	++ (++ = pIC50 4.50-5.49)	–	–
O=C(Cc1ccccc1)Nc1oncc1-c1ccccc1 [Compound 19]	+ (+ = pIC50 4.00-4.49)	++ (++ = pIC50 4.50-5.49)	–	–

Second part, the compound after the results:

A172 Kynurenine cell based assay pIC50 [1]	SKOV3 Kynurenine cell based assay pIC50 [2]	hIDO biochemical assay pIC50 [3]	hTDO biochemical assay pIC50 [4]	SMILES
++ (++ = pIC50 4.50-5.49)	++ (++ = pIC50 4.50-5.49)	++ (++ = pIC50 4.50-5.49)	++ (++ = pIC50 4.50-5.49)	CC(C)C(=O)Nc1oncc1-c1ccccc1 [Compound 34]
+++ (+++ = pIC50 ≥ 5.50)	++ (++ = pIC50 4.50-5.49)	++ (++ = pIC50 4.50-5.49)	+ (+ = pIC50 4.00-4.49)	Nc1noc(N)c1-c1cccc(Cl)c1 [Compound 5]
++ (++ = pIC50 4.50-5.49)	+ (+ = pIC50 4.00-4.49)	+ (+ = pIC50 4.00-4.49)	+ (+ = pIC50 4.00-4.49)	CC(=O)Nc1oncc1-c1ccccc1 [Compound 17]
+++ (+++ = pIC50 ≥ 5.50)	++ (++ = pIC50 4.50-5.49)	++ (++ = pIC50 4.50-5.49)	+ (+ = pIC50 4.00-4.49)	Nc1oncc1-c1cccc(F)c1 [Compound 13]
+++ (+++ = pIC50 ≥ 5.50)	+ (+ = pIC50 4.00-4.49)	++ (++ = pIC50 4.50-5.49)	++ (++ = pIC50 4.50-5.49)	CC(O)C(=O)Nc1oncc1-c1ccccc1 (centres unmarked) [Compound 75]
+++ (+++ = pIC50 ≥ 5.50)	++ (++ = pIC50 4.50-5.49)	+ (+ = pIC50 4.00-4.49)	+/− (+/− = pIC50 < 4.00)	CC(N)C(=O)Nc1oncc1-c1ccccc1 (centres unmarked) [Compound 81]
++ (++ = pIC50 4.50-5.49)	++ (++ = pIC50 4.50-5.49)	–	–	CN(C)CC(=O)Nc1oncc1-c1ccccc1 [Compound 37]
++ (++ = pIC50 4.50-5.49)	+/− (+/− = pIC50 < 4.00)	–	–	Oc1oncc1-c1ccccc1 [Compound 23]
+ (+ = pIC50 4.00-4.49)	++ (++ = pIC50 4.50-5.49)	–	–	Nc1oncc1-c1ccccc1Cl [Compound 15]
++ (++ = pIC50 4.50-5.49)	+ (+ = pIC50 4.00-4.49)	–	–	Cc1noc(N)c1-c1ccccc1 [Compound 10]
++ (++ = pIC50 4.50-5.49)	+ (+ = pIC50 4.00-4.49)	–	–	CC(C)(O)C(=O)Nc1oncc1-c1ccccc1 [Compound 64]
+++ (+++ = pIC50 ≥ 5.50)	++ (++ = pIC50 4.50-5.49)	+ (+ = pIC50 4.00-4.49)	+/− (+/− = pIC50 < 4.00)	O=C(CO)Nc1oncc1-c1ccccc1 [Compound 63]
+++ (+++ = pIC50 ≥ 5.50)	+ (+ = pIC50 4.00-4.49)	–	–	NCCNc1oncc1-c1ccccc1 [Compound 82]
++ (++ = pIC50 4.50-5.49)	+ (+ = pIC50 4.00-4.49)	–	–	CC(C)S(=O)(=O)Nc1oncc1-c1ccccc1 [Compound 30]
++ (++ = pIC50 4.50-5.49)	+/− (+/− = pIC50 < 4.00)	–	–	Cc1noc(N)c1-c1ccc(F)cc1 [Compound 6]
+++ (+++ = pIC50 ≥ 5.50)	++ (++ = pIC50 4.50-5.49)	++ (++ = pIC50 4.50-5.49)	++ (++ = pIC50 4.50-5.49)	Nc1oncc1-c1ccccc1 [Compound 7]
+++ (+++ = pIC50 ≥ 5.50)	+ (+ = pIC50 4.00-4.49)	–	–	CN(C)CCC(=O)Nc1oncc1-c1ccccc1 [Compound 69]
++ (++ = pIC50 4.50-5.49)	++ (++ = pIC50 4.50-5.49)	–	–	Nc1oncc1-c1ccccc1F [Compound 20]
